Source: patent publication US4826856A, “Calcium antagonistic dihydropyridine derivative” (Yason s.r.l., priority 1985, dated 1989)

What was measured:
[1] = tested on: SHR-SP; assay: Effect on blood pressure in 6 month old SHR-SP (intraduodenal); type: in vivo, rat; parameters: DBP (dyastolic blood pressure) / MBP (mean blood pressure) / SBP (systolic blood pressure) / S-D (difference between systolic and diastolic blood pressure): unit not given here; conditions: 15 mg/kg intraduodenal
Description: Comparative effect of YS 201 on 3 month old rats and 6 month old SHR-SP

[2] = tested on: Sprague-Dawley rats; assay: Ventricular arrhythmias during coronary artery ligation period; type: in vivo, rat; parameters: EBs, mean value of indices + SEM / VT, mean value of indices + SEM / VF, mean value of indices + SEM: scale not given here
Experimental: Ventricular arrhythmias after coronary artery ligation in the acute phase or during the period of re-circulation
Sprague-Dawley rats were subjected to ligation of the left coronary artery according to the method of Clark et al. in J. Pharmacol. Methods 3, 357-368, 1980. The drugs were administered by gastric tube 30 minutes before the ligation. By means of a continuous electrocardiographic recording, the ventricular arrhythmias such as ectopic beats (EB), ventricular tachycardia (VT), ventricular fibrillation (VF) for 30 minutes after ligation, were recorded.

Structure (SMILES): CCOC(=O)C1=C(C)NC(C)=C(C(=O)OCCN2CCCCC2)C1c1cccc([N+](=O)[O-])c1 (stereo not drawn) [YS 201, ethyl-(β-piperidinoethyl)-2,6-dimethyl-4-(3-nitrophenyl)-1,4-dihydropyridine-3,5-dicarboxylate]
- duration of blood pressure effect [1]: 4 h
- DBP (dyastolic blood pressure) ([1]; 0 min (baseline)): 17.5
- HR (heart rate) ([1]; 0 min (baseline)): 360 beats/min
- MBP (mean blood pressure) ([1]; 0 min (baseline)): 20.0
- S-D (difference between systolic and diastolic blood pressure) ([1]; 0 min (baseline)): 7.5
- SBP (systolic blood pressure) ([1]; 0 min (baseline)): 25.0
- DBP (dyastolic blood pressure) ([1]; +1 min): 17.0
- HR (heart rate) ([1]; +1 min): 360 beats/min
- MBP (mean blood pressure) ([1]; +1 min): 19.3
- S-D (difference between systolic and diastolic blood pressure) ([1]; +1 min): 7.0
- SBP (systolic blood pressure) ([1]; +1 min): 24.0
- DBP (dyastolic blood pressure) ([1]; +2 min): 15.0
- HR (heart rate) ([1]; +2 min): 360 beats/min
- MBP (mean blood pressure) ([1]; +2 min): 17.5
- S-D (difference between systolic and diastolic blood pressure) ([1]; +2 min): 7.5
- SBP (systolic blood pressure) ([1]; +2 min): 22.5
- DBP (dyastolic blood pressure) ([1]; +5 min): 16.0
- HR (heart rate) ([1]; +5 min): 360 beats/min
- MBP (mean blood pressure) ([1]; +5 min): 18.7
- S-D (difference between systolic and diastolic blood pressure) ([1]; +5 min): 8.0
- SBP (systolic blood pressure) ([1]; +5 min): 24.0
- DBP (dyastolic blood pressure) ([1]; +10 min): 13.5
- HR (heart rate) ([1]; +10 min): 360 beats/min
- MBP (mean blood pressure) ([1]; +10 min): 16.2
- S-D (difference between systolic and diastolic blood pressure) ([1]; +10 min): 8.0
- SBP (systolic blood pressure) ([1]; +10 min): 21.5
- DBP (dyastolic blood pressure) ([1]; +15 min): 13.0
- HR (heart rate) ([1]; +15 min): 360 beats/min
- MBP (mean blood pressure) ([1]; +15 min): 15.7
- S-D (difference between systolic and diastolic blood pressure) ([1]; +15 min): 8.0
- SBP (systolic blood pressure) ([1]; +15 min): 21.0
- DBP (dyastolic blood pressure) ([1]; +30 min): 11.0
- HR (heart rate) ([1]; +30 min): 340 beats/min
- MBP (mean blood pressure) ([1]; +30 min): 13.7
- S-D (difference between systolic and diastolic blood pressure) ([1]; +30 min): 8.0
- SBP (systolic blood pressure) ([1]; +30 min): 19.0
- DBP (dyastolic blood pressure) ([1]; +60 min): 10.0
- HR (heart rate) ([1]; +60 min): 300 beats/min
- MBP (mean blood pressure) ([1]; +60 min): 12.0
- S-D (difference between systolic and diastolic blood pressure) ([1]; +60 min): 7.0
- SBP (systolic blood pressure) ([1]; +60 min): 17.0
- DBP (dyastolic blood pressure) ([1]; +120 min): 11.5
- HR (heart rate) ([1]; +120 min): 360 beats/min
- MBP (mean blood pressure) ([1]; +120 min): 13.5
- S-D (difference between systolic and diastolic blood pressure) ([1]; +120 min): 6.0
- SBP (systolic blood pressure) ([1]; +120 min): 17.5
- DBP (dyastolic blood pressure) ([1]; +180 min): 8.0
- HR (heart rate) ([1]; +180 min): 400 beats/min
- MBP (mean blood pressure) ([1]; +180 min): 9.8
- S-D (difference between systolic and diastolic blood pressure) ([1]; +180 min): 5.5
- SBP (systolic blood pressure) ([1]; +180 min): 13.5
- DBP (dyastolic blood pressure) ([1]; +240 min): 6.0
- HR (heart rate) ([1]; +240 min): 420 beats/min
- MBP (mean blood pressure) ([1]; +240 min): 7.5
- S-D (difference between systolic and diastolic blood pressure) ([1]; +240 min): 4.5
- SBP (systolic blood pressure) ([1]; +240 min): 10.5
- Death rate % ([2]; 0.75 mg/kg p.o.): 20%
- EBs, mean value of indices + SEM ([2]; 0.75 mg/kg p.o.): 42.1 ± 9.70
- VF % ([2]; 0.75 mg/kg p.o.): 60%
- VF, mean value of indices + SEM ([2]; 0.75 mg/kg p.o.): 3.8 ± 1.77
- VT, mean value of indices + SEM ([2]; 0.75 mg/kg p.o.): 1.3 ± 0.68
- Death rate % ([2]; 1.5 mg/kg p.o.): 0%
- EBs, mean value of indices + SEM ([2]; 1.5 mg/kg p.o.): 45.7 ± 6.18
- VF % ([2]; 1.5 mg/kg p.o.): 20%
- VF, mean value of indices + SEM ([2]; 1.5 mg/kg p.o.): 0.5 ± 0.49
- VT, mean value of indices + SEM ([2]; 1.5 mg/kg p.o.): 1.9 ± 0.32
- Death rate % ([2]; 3.0 mg/kg p.o.): 80%
- EBs, mean value of indices + SEM ([2]; 3.0 mg/kg p.o.): 36.0 ± 9.11
- VF % ([2]; 3.0 mg/kg p.o.): 100%
- VF, mean value of indices + SEM ([2]; 3.0 mg/kg p.o.): 4.8 ± 1.41
- VT, mean value of indices + SEM ([2]; 3.0 mg/kg p.o.): 1.6 ± 0.77
- reduction of the index attributed to EBs and VT ([2]; whatever the dosage): ~2 fold
